Test results: patent US7692030B2, “Conjugates of artemisinin-related endoperoxides and hydrazone derivatives for the treatment of cancer” (University of Washington, priority 2006, dated 2010)

Tests used:
HL-60(TB) = assay type: cell-based, human; settings: Leukemia, 10 μM, 48 h
Description: The human tumor cell lines of the cancer screening panel were grown in RPMI 1640 medium containing 5% fetal bovine serum and 2 mM L-glutamine. For experimental screens, cells were inoculated into 96 well microtiter plates in 100 μL at plating densities ranging from 5,000 to 40,000 cells/well depending on the doubling time of individual cell lines. After cell inoculation, the microtiter plates were incubated at 37° C., 5% carbon dioxide, 95% air and 100% relative humidity for 24 hours prior to addition of the compounds.

MCF7 = experiment: NCI DTP human tumor cell line screen (SRB); assay type: cell-based; settings: Breast Cancer, 10 μM, 48 h
Description: (§1) Representative compounds of the invention, prepared as described in EXAMPLES 1-6, were submitted to the Developmental Therapeutics Program of the United States National Cancer Institute (NCl) to screen for anti-cancer activity. The anti-cancer activities of the six compounds were tested against approximately 60 human tumor cell lines representing leukemia, melanoma, and cancers of the lung, colon, breast, ovary, kidney, prostate, and brain. The following screening methodology was provided by the NCl. […] For experimental screens, cells were inoculated into 96 well microtiter plates in 100 μL at plating densities ranging from 5,000 to 40,000 cells/well depending on the doubling time of individual cell lines. After cell inoculation, the microtiter plates were incubated at 37° C., 5% carbon dioxide, 95% air and 100% relative humidity for 24 hours prior to addition of the compounds. After 24 hours of incubation, two plates of each cell line were fixed in situ with trichloroacetic acid (TCA) to represent a measurement of the cell population for each cell line at the time of compound addition (Tz). The compounds were solubilized in dimethyl sulfoxide at 400-fold the desired final maximum test concentration and stored frozen prior to use. At the time of drug addition, frozen aliquots of the compounds thawed and diluted with complete medium containing 50 μg/ml gentamicin. Aliquots of 100 μl of these different compound dilutions were added to the appropriate microtiter wells already containing 100 μl of medium, resulting in the required final compound concentration of 10 μM. Following compound addition, the plates were incubated for an additional 48 h at 37° C., 5% carbon dioxide, 95% air, and 100% relative humidity. For adherent cells, the assay was terminated by the addition of cold TCA. Cells were fixed in situ by the gentle addition of 50 μl of cold 50% (w/v) TCA (final concentration, 10% TCA) and incubated for 60 minutes at 4° C. The supernatant was discarded, and the plates were washed five times with tap water and air dried. Sulforhodamine B (SRB) solution (100 μl) at 0.4% (w/v) in 1% acetic acid was added to each well, and plates were incubated for 10 minutes at room temperature. After staining, unbound dye was removed by washing five times with 1% acetic acid and the plates were air dried. Bound stain was subsequently solubilized with 10 mM trizma base, and the absorbance was read on an automated plate reader at a wavelength of 515 nm. For suspension cells, the methodology was the same except that the assay was terminated by fixing settled cells at the bottom of the wells by gently adding 50 μl of 80% TCA (final concentration, 16% TCA). Using the three absorbance measurements [time zero, (Tz), control growth, (C), and test growth in the presence of compound (Ti)], the percentage growth was calculated at each of the compound concentrations levels. Percentage growth inhibition was calculated with the following algorithms: [(Ti−Tz)/(C−Tz)]×100 for concentrations for which Ti>/=Tz [(Ti−Tz)/Tz]×100 for concentrations for which Ti<Tz The results of the NCl in vitro anticancer screening with six compounds against various human tumor cell lines are presented below in Tables 2-7. […] The growth percent mean, delta, and range for each compound are given below.

K-562 = experiment: NCI DTP human tumor cell line screen (SRB); assay type: cell-based; settings: Leukemia, 10 μM, 48 h
Description: as §1

NCI-H226 = experiment: NCI DTP human tumor cell line screen (SRB); assay type: cell-based; settings: Non-Small Cell Lung Cancer, 10 μM, 48 h
Description: as §1

COLO 205 = experiment: NCI DTP human tumor cell line screen (SRB); assay type: cell-based; settings: Colon Cancer, 10 μM, 48 h
Description: as §1

OVCAR-4 = experiment: NCI DTP human tumor cell line screen (SRB); assay type: cell-based; settings: Ovarian Cancer, 10 μM, 48 h
Description: as §1

SN12C = experiment: NCI DTP human tumor cell line screen (SRB); assay type: cell-based; settings: Renal Cancer, 10 μM, 48 h
Description: as §1

OVCAR-5 = experiment: NCI DTP human tumor cell line screen (SRB); assay type: cell-based; settings: Ovarian Cancer, 10 μM, 48 h
Description: as §1

HOP-62 = experiment: NCI DTP human tumor cell line screen (SRB); assay type: cell-based; settings: Non-Small Cell Lung Cancer, 10 μM, 48 h
Description: as §1

T-47D = experiment: NCI DTP human tumor cell line screen (SRB); assay type: cell-based; settings: Breast Cancer, 10 μM, 48 h
Description: as §1

SNB-19 = experiment: NCI DTP human tumor cell line screen (SRB); assay type: cell-based; settings: CNS Cancer, 10 μM, 48 h
Description: as §1

NCI-H23 = experiment: NCI DTP human tumor cell line screen (SRB); assay type: cell-based; settings: Non-Small Cell Lung Cancer, 10 μM, 48 h
Description: as §1

UACC-257 = experiment: NCI DTP human tumor cell line screen (SRB); assay type: cell-based; settings: Melanoma, 10 μM, 48 h
Description: as §1

CAKI-1 = experiment: NCI DTP human tumor cell line screen (SRB); assay type: cell-based; settings: Renal Cancer, 10 μM, 48 h
Description: as §1

BT-549 = experiment: NCI DTP human tumor cell line screen (SRB); assay type: cell-based; settings: Breast Cancer, 10 μM, 48 h
Description: as §1

A498 = experiment: NCI DTP human tumor cell line screen (SRB); assay type: cell-based; settings: Renal Cancer, 10 μM, 48 h
Description: as §1

CCRF-CEM = experiment: NCI DTP human tumor cell line screen (SRB); assay type: cell-based; settings: Leukemia, 10 μM, 48 h
Description: as §1

SK-MEL-5 = experiment: NCI DTP human tumor cell line screen (SRB); assay type: cell-based; settings: Melanoma, 10 μM, 48 h
Description: as §1

SF-268 = experiment: NCI DTP human tumor cell line screen (SRB); assay type: cell-based; settings: CNS Cancer, 10 μM, 48 h
Description: as §1

SK-MEL-28 = experiment: NCI DTP human tumor cell line screen (SRB); assay type: cell-based; settings: Melanoma, 10 μM, 48 h
Description: as §1

HCT-116 = experiment: NCI DTP human tumor cell line screen (SRB); assay type: cell-based; settings: Colon Cancer, 10 μM, 48 h
Description: as §1

UACC-62 = experiment: NCI DTP human tumor cell line screen (SRB); assay type: cell-based; settings: Melanoma, 10 μM, 48 h
Description: as §1

U251 = experiment: NCI DTP human tumor cell line screen (SRB); assay type: cell-based; settings: CNS Cancer, 10 μM, 48 h
Description: as §1

SF-539 = experiment: NCI DTP human tumor cell line screen (SRB); assay type: cell-based; settings: CNS Cancer, 10 μM, 48 h
Description: as §1

SNB-75 = experiment: NCI DTP human tumor cell line screen (SRB); assay type: cell-based; settings: CNS Cancer, 10 μM, 48 h
Description: as §1

SF-295 = experiment: NCI DTP human tumor cell line screen (SRB); assay type: cell-based; settings: CNS Cancer, 10 μM, 48 h
Description: as §1

MDA-MB-435 = experiment: NCI DTP human tumor cell line screen (SRB); assay type: cell-based; settings: Breast Cancer, 10 μM, 48 h
Description: as §1

PC-3 = experiment: NCI DTP human tumor cell line screen (SRB); assay type: cell-based; settings: Prostate Cancer, 10 μM, 48 h
Description: as §1

MDA-MB-231/ATCC = experiment: NCI DTP human tumor cell line screen (SRB); assay type: cell-based; settings: Breast Cancer, 10 μM, 48 h
Description: as §1

HS 578T = experiment: NCI DTP human tumor cell line screen (SRB); assay type: cell-based; settings: Breast Cancer, 10 μM, 48 h
Description: as §1

HCC-2998 = experiment: NCI DTP human tumor cell line screen (SRB); assay type: cell-based; settings: Colon Cancer, 10 μM, 48 h
Description: as §1

OVCAR-8 = experiment: NCI DTP human tumor cell line screen (SRB); assay type: cell-based; settings: Ovarian Cancer, 10 μM, 48 h
Description: as §1

## CC1CCC2C(C)C(OCc3ccc(C(=O)NN=Cc4ccccc4O)nc3)OC3OC4(C)CCC1C32OO4 (stereo not shown) [ART-Pyr-Sal, N′-(2-hydroxybenzylidene)-5-(dihydroxyartemisinin-methyl)-2-pyridine carbohydrazide]
HL-60(TB)
  Growth Percent: 5.22%
MCF7
  Growth Percent: 13.61%
K-562
  Growth Percent: 26.88%
NCI-H226
  Growth Percent: 1.83%
COLO 205
  Growth Percent: 30.63%
OVCAR-4
  Growth Percent: 23.04%
SN12C
  Growth Percent: 22.81%
OVCAR-5
  Growth Percent: 55.16%
HOP-62
  Growth Percent: 20.73%
T-47D
  Growth Percent: 12.21%
SNB-19
  Growth Percent: 20.71%
NCI-H23
  Growth Percent: 16.47%
UACC-257
  Growth Percent: 6.22%
CAKI-1
  Growth Percent: 18.48%
BT-549
  Growth Percent: 15.65%
A498
  Growth Percent: 5.27%
CCRF-CEM
  Growth Percent: −17.26%
SK-MEL-5
  Growth Percent: −18.98%
SF-268
  Growth Percent: 12.40%
SK-MEL-28
  Growth Percent: 29.92%
HCT-116
  Growth Percent: 18.34%
UACC-62
  Growth Percent: 7.61%
U251
  Growth Percent: 14.70%
SF-539
  Growth Percent: −29.69%
SNB-75
  Growth Percent: −6.97%
SF-295
  Growth Percent: 4.52%
MDA-MB-435
  Growth Percent: 30.18%
PC-3
  Growth Percent: 21.62%
MDA-MB-231/ATCC
  Growth Percent: 50.08%
HS 578T
  Growth Percent: 19.38%
HCC-2998
  Growth Percent: 4.91%
OVCAR-8
  Growth Percent: 8.81%

## CC1CCC2C(C)C(OCCn3cc(C(=O)NN=Cc4ccccc4O)nn3)OC3OC4(C)CCC1C32OO4 (stereo not shown) [ART-Triazole-Sal, N′-(2-hydroxybenzylidene)-1-(dihydroxyartemisinin-ethyl)-1H-1,2,3-triazole-4-carbohydrazide]
HL-60(TB)
  Growth Percent: −31.16%
MCF7
  Growth Percent: 13.62%
K-562
  Growth Percent: 17.31%
NCI-H226
  Growth Percent: 26.98%
COLO 205
  Growth Percent: 26.05%
OVCAR-4
  Growth Percent: 15.89%
SN12C
  Growth Percent: 45.26%
OVCAR-5
  Growth Percent: 41.28%
HOP-62
  Growth Percent: 24.18%
T-47D
  Growth Percent: 37.45%
SNB-19
  Growth Percent: 45.73%
NCI-H23
  Growth Percent: 30.70%
UACC-257
  Growth Percent: 19.39%
CAKI-1
  Growth Percent: 40.15%
BT-549
  Growth Percent: 40.56%
A498
  Growth Percent: 50.94%
CCRF-CEM
  Growth Percent: −14.86%
SK-MEL-5
  Growth Percent: 12.45%
SF-268
  Growth Percent: 21.15%
SK-MEL-28
  Growth Percent: 27.59%
HCT-116
  Growth Percent: 20.87%
UACC-62
  Growth Percent: 10.70%
U251
  Growth Percent: 24.89%
SF-539
  Growth Percent: 14.19%
SNB-75
  Growth Percent: −8.40%
SF-295
  Growth Percent: 24.32%
MDA-MB-435
  Growth Percent: 35.26%
PC-3
  Growth Percent: 38.28%
MDA-MB-231/ATCC
  Growth Percent: 52.54%
HS 578T
  Growth Percent: 48.29%
HCC-2998
  Growth Percent: 25.98%
OVCAR-8
  Growth Percent: 25.82%
